From PubChem BioAssay (NCI)
Where “and” joins values, the source holds several entries; their conditions need not be identical. Identical values can stand only once.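 Exposure lasted 48 hours, with cells grown in 96-well plates and compounds tested at five concentrations. At the GI50, growth is halved. TGI is the concentration that stops growth completely.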

Key:
Test in all cases: DTP human tumour cell line panel, 48 h
ACHN renal = system: ACHN renal
BT-549 breast = system: BT-549 breast
HCC-2998 colon = system: HCC-2998 colon
HCT-116 colon = system: HCT-116 colon
HOP-92 NSCLC = system: HOP-92 NSCLC
M14 melanoma = system: M14 melanoma
NCI-H522 lung = system: NCI-H522 lung
SF-295 CNS = system: SF-295 CNS
SR leukemia = system: SR leukemia
U251 CNS = system: U251 CNS

Compound | GI50 (ACHN renal) | TGI (ACHN renal) | GI50 (BT-549 breast) | TGI (BT-549 breast) | GI50 (HCC-2998 colon) | TGI (HCC-2998 colon) | GI50 (HCT-116 colon) | TGI (HCT-116 colon) | GI50 (HOP-92 NSCLC) | TGI (HOP-92 NSCLC) | GI50 (M14 melanoma) | TGI (M14 melanoma) | GI50 (NCI-H522 lung) | TGI (NCI-H522 lung) | GI50 (SF-295 CNS) | TGI (SF-295 CNS) | GI50 (SR leukemia) | TGI (SR leukemia) | GI50 (U251 CNS) | TGI (U251 CNS)
C[C@]12CC[C@@H]3c4ccc(O)cc4CC[C@H]3[C@@H]1Cc1cnc(N)nc12 | 21.1 µM | 51.3 µM | 18.7 µM | 53.2 µM | 9.36 µM | 26.1 µM | 23.6 µM | 69.2 µM | 11.7 µM | 31.6 µM | 18.2 µM | 36.4 µM | 17.3 µM | 41.2 µM | 15.2 µM | 42.7 µM | 7.06 µM | 39.2 µM | 17.9 µM | 41.6 µM
CC(C)(C)c1[nH]nc2c1C(c1cc3ccccc3[nH]c1=O)Nc1cc(C(=O)OCc3ccccc3)ccc1N2 (configuration not stated) | 4.25 µM | > 100 µM | 3.35 µM | > 100 µM | 4.08 µM | > 100 µM | 3.2 µM | > 100 µM | 1.35 µM | 8.34 µM | 4.28 µM | > 100 µM | 3.11 µM | 8.78 µM | 3.17 µM | 38.5 µM | 3.52 µM | > 100 µM | 3.41 µM | > 100 µM
CCC[CH2][Sn]1([CH2]CCC)[O]C2C(CO)OC(n3ccc(N)nc3=O)C2[O]1 (configuration not stated) | 1.35 µM | 2.67 µM | 1.42 µM | 2.73 µM | 1.66 µM | 3.2 µM | 1.44 µM | 2.79 µM | 0.361 µM | 1.98 µM | 1.55 µM | 3.09 µM | 0.186 µM | 0.424 µM | 1.93 µM | 3.72 µM | 0.549 µM | > 100 µM | 1.52 µM | 2.87 µM
Cc1cn2c(/C=C3/C(=O)Nc4ccc(O)cc43)c(C)nc2s1 | 5.72 µM | 62.8 µM | 5.82 µM | 57.7 µM | 1.76 µM | 5.01 µM | 1.22 µM | > 45.5 µM | 0.373 µM | 8.87 µM | 2.29 µM | > 39.1 µM | 0.773 µM | > 29.3 µM | 1.73 µM | 8.08 µM | 0.316 µM | 13.6 µM | 3.06 µM | 35.7 µM
CN(C)CC1CCC2=C(C1=O)C(c1ccc(Cl)c(Cl)c1)C1=C(CCC(CN(C)C)C1=O)O2 (configuration not stated) | 14.3 µM | 27.3 µM | 14.2 µM | 27.7 µM | 0.0835 µM | 14.6 µM | 10.4 µM | 23.4 µM | 11.3 µM | 25.5 µM | 9.35 µM | 23.4 µM | 1.81 µM | 3.37 µM | 16.9 µM | 30.5 µM | 1.44 µM | 5.37 µM | 11.7 µM | 23.9 µM
O=C1NOC(c2ccc(O)cc2)(c2ccc(O)cc2)c2ccccc21 | > 100 µM | > 100 µM | > 100 µM | > 100 µM | > 100 µM | > 100 µM | > 100 µM | > 100 µM | > 100 µM | > 100 µM | > 100 µM | > 100 µM | > 100 µM | > 100 µM | > 100 µM | > 100 µM | > 100 µM | > 100 µM | > 100 µM | > 100 µM
NC(=O)c1ccc(-c2nc(-c3ccc4c(c3)OCO4)c(-c3ccccn3)[nH]2)cc1 | > 25 µM and 34 µM | > 100 µM | > 25 µM and 22.5 µM | > 96.7 µM | > 25 µM and 30.9 µM | > 100 µM | > 25 µM and 30.4 µM | > 100 µM | > 25 µM and 11.4 µM | > 84.6 µM | > 25 µM and 38.1 µM | > 100 µM | > 25 µM and 22.3 µM | > 25 µM and 72.5 µM | > 25 µM and 24.9 µM | > 25 µM and 79.1 µM | > 25 µM and 20.4 µM | > 100 µM | > 25 µM and 44.5 µM | > 100 µM
COc1cc(OC)c(C(=O)/C=C/c2cccc(C#N)c2)c(OC)c1 | 1.13 µM | 4.47 µM | 0.611 µM | 2.5 µM | 2.17 µM | 7.34 µM | 0.414 µM | 1.62 µM | 0.701 µM | 3.26 µM | 0.978 µM | 4.68 µM | 0.992 µM | 2.94 µM | 1.31 µM | 5.51 µM | 0.241 µM | > 50 µM | 1.53 µM | 5.76 µM
Cn1cccc1-c1cc(-c2ccc(Br)cc2)[nH]c(=O)c1C#N | > 100 µM | > 100 µM | 85.2 µM | > 100 µM | > 100 µM | > 100 µM | > 100 µM | > 100 µM | 27.8 µM | > 100 µM | – | – | 82.1 µM | > 100 µM | > 100 µM | > 100 µM | > 100 µM | > 100 µM | > 100 µM | > 100 µM
CN(C)c1ccc(C(=NO)c2ccc(N(C)C)cc2)cc1 | 8.43 µM | > 100 µM | 7.34 µM | > 100 µM | 8.06 µM | > 100 µM | 2.53 µM | > 100 µM | 15.2 µM | > 100 µM | – | – | 1.08 µM | > 100 µM | – | – | 0.32 µM | > 100 µM | 2.68 µM | > 100 µM
Nc1ncnc2c1c(-c1ccc(Oc3ccccc3)cc1)nn2C[C@@H]1SSC[C@H]1O | 2.02 µM | 10.5 µM | 3.58 µM | 11.6 µM | 4.34 µM | 23.5 µM | 0.364 µM | 5.23 µM | 1.75 µM | 5.87 µM | – | – | 2.08 µM | 7.18 µM | 2.7 µM | 9.25 µM | 0.163 µM | 11.8 µM | 2.48 µM | 8.21 µM
COC(=O)c1cc2ccccc2c2c3c(ccc12)OCO3 | 75.3 µM | > 1000 µM | 47.1 µM | 482 µM | 562 µM | > 1000 µM | 194 µM | > 1000 µM | 17.4 µM | 73 µM | 474 µM | > 1000 µM | – | – | 99.8 µM | 548 µM | 167 µM | > 1000 µM | 79.2 µM | 924 µM
CCOC(=O)C1CCCCN1C(=O)c1ccc(Nc2cnc3cc(C(F)(F)F)ccc3n2)cc1 (configuration not stated) | 15.4 µM | 43.4 µM | 20.1 µM | 38.7 µM | – | – | 14.9 µM | 28.1 µM | – | 5.93 µM | 14.9 µM | 29 µM | 30.4 µM | > 100 µM | 3.31 µM | 9.24 µM | 3.8 µM | 19.1 µM | 11.3 µM | 32.2 µM
